“Also recorded” adds a separate entry of the source.
Legend:
Format in all cases: cell-based, Desulfitobacterium dichloroeliminans strain DCA1
[1] = tested on: Desulfitobacterium strain DCA1; assay: Substrate range determination: growth on and dechlorination product from chlorinated substrates
[2] = tested on: Desulfitobacterium strain DCA1; assay: Inhibition of 1,2-DCA dechlorination / toxicity to strain DCA1
[3] = tested on: Desulfitobacterium strain DCA1; assay: Growth of strain DCA1 on other electron acceptors; details: for growth in the presence of electron acceptor: 3mM, electron donors lactate and H2

SMILES: ClCC(Cl)Cl [1,1,2-TCA, 1,1,2-trichloroethane]
- growth of strain DCA1 [1]: sustained growth; also recorded: supported growth

SMILES: ClCC(Cl)CCl [1,2,3-trichloropropane]
- dechlorination reaction [1]: no dechlorination reaction was observed

SMILES: CCC(Cl)CCl (stereo not drawn) [1,2-DCB, 1,2-dichlorobutane]
- growth of strain DCA1 [1]: sustained growth

SMILES: CC(Cl)CCl (stereo not drawn) [1,2-dichloropropane]
- growth of strain DCA1 [1]: sustained growth

SMILES: OCC(Cl)CCl (stereo not drawn) [2,3-DC-propanol]
- dechlorination reaction [1]: no dechlorination reaction was observed

SMILES: ClC(Cl)Cl [Chloroform, reference compound]
- inhibition at 50 µM ([2]; Desulfitobacterium dichloroeliminans, DCA1, read-out: inhibition of the dechlorination of 1,2-DCA): < 50%

SMILES: CC(Cl)C(C)Cl [D-2,3-DCB, D-2,3-dichlorobutane]
- growth of strain DCA1 [1]: sustained growth

SMILES: O=C(O)/C=C/C(=O)O [Fumarate]
- toxicity to strain DCA1 [2]: not toxic
- conversion as electron acceptors [3]: not converted

SMILES: CC(Cl)C(C)Cl [L-2,3-DCB, L-2,3-dichlorobutane]
- growth of strain DCA1 [1]: sustained growth

SMILES: O=NO [NO2^-]
- inhibition of the dechlorination ([2]; 2.5 mM): fully inhibited
- conversion as electron acceptors [3]: not converted

SMILES: O=[N+]([O-])O [NO3^-]
- growth in the presence of electron acceptor [3]: grew

SMILES: O=O [O2]
- conversion as electron acceptors [3]: not converted

SMILES: CCCI [Propyliodide, reference compound]
- inhibition of the dechlorination ([2]; 50 µM, in the dark, light reversible): fully inhibited

SMILES: O=S(O)(O)=S [S2O3^2-]
- growth in the presence of electron acceptor [3]: grew

SMILES: O=S(O)O [SO3^2-]
- growth in the presence of electron acceptor [3]: grew

SMILES: O=S(=O)(O)O [SO4^2-]
- conversion as electron acceptors [3]: not converted

SMILES: Cl[C@H]1[C@H](Cl)[C@@H](Cl)[C@@H](Cl)[C@H](Cl)[C@H]1Cl [lindane]
- dechlorination reaction [1]: no dechlorination reaction was observed

SMILES: C[C@H](Cl)[C@@H](C)Cl [meso-2,3-DCB, meso-2,3-dichlorobutane]
- growth of strain DCA1 [1]: sustained growth

SMILES: O=C(O)[C@@H](Br)[C@@H](Br)C(=O)O [meso-2,3-dibromosuccinate]
- dechlorination reaction [1]: no dechlorination reaction was observed

Reference: EP1352977A2, “Novel Desulfitobacterium strain for the degradation of chloroalkenes” (UNIVERSITEIT GENT, priority 2002, dated 2003)
